Experimental data reported in patent US7655690B2, “1-sulfonylindole derivatives, their preparation and their use as 5-HT6 ligands” (Laboratorios del Dr. Esteve S.A., priority 2004, dated 2010).
Where a name gives a salt, the structure may show the parent alone.

Row | melting point [°C] | Structure (SMILES)
1 | 263 | O=S(=O)(C1CCCCC1)n1cc(C2=CCN3CCCC3C2)c2cc(F)ccc21 (stereo not shown) (as salt: hydrochloride) [Example 4, 1-Cyclohexanesulfonyl-5-fluoro-3-(1,2,3,5,8,8a-hexahydro-indolizine-7-yl)-1H-indole hydrochloride]
2 | 155 to 160 | CN1CC=C(c2cn(S(=O)(=O)C3CCCCC3)c3ccc([N+](=O)[O-])cc23)CC1 [Example 1, 1-Cyclohexanesulfonyl-3-(1-methyl-1,2,3,6-tetrahydropyridine-4-yl)-5-nitro-1H-indole]
3 | 88 to 90 | CN1CC=C(c2cn(S(=O)(=O)C3CCCCC3)c3ccc(Cl)cc23)CC1 [Example 2, 5-Chloro-1-cyclohexanesulfonyl-3-(1-methyl-1,2,3,6-tetrahydropyridine-4-yl)-1H-indole]
4 | 75 | CN1CC=C(c2cn(S(=O)(=O)C3CCCCC3)c3ccc(N)cc23)CC1 [Example 3, 5-Amino-1-cyclohexanesulfonyl-3-(1-methyl-1,2,3,6-tetrahydropyridine-4-yl)-1H-indole]
